Like-named read-outs stand apart in the source and are kept apart here.

In test [1] the test system is peripheral blood mononuclear cells (PBMC). As to the kind of experiment: Antibody (IgG, IgM) production by SAC/IL-2-stimulated peripheral blood mononuclear cells. The test is classed as cell-based. The conditions noted are these: Homo sapiens, 144 h, 6 days incubation; for inhibition at 0.1 µM: final concentration 0.1 µM; for inhibition at 1 µM: final concentration 1 µM; for inhibition at 10 µM: final concentration 10 µM. The method, then:
Heparinized peripheral blood derived from a healthy person was diluted 2-fold with phosphate buffered saline (PBS) and applied to density-gradient centrifugation using Ficoll-Paque (Pharmacia Biotech) to give peripheral blood mononuclear cells (PBMC). After isolation, PBMC was rinsed with PBS, and suspended in RPMI-1640 medium (K.K. Nikken Seibutsu Igaku Kenkyujo) containing 10% heat-inactivated fetal calf serum (1 × 10^6 cells/mL), followed by addition of 0.05% Staphylococcus aureus Cowan-I (SAC, CALBIOCHEM) and 10 units/mL interleukin-2 (IL-2, Genzyme) for stimulation, as well as by simultaneous addition of Compound No. 130 (final concentration: 0.1, 1 and 10 µM). The mixtures were incubated on a 96-well microtest plate at 37°C for 6 days in an atmosphere of 95% air and 5% CO2. After incubation, supernatants were collected and quantitatively measured for IgG and IgM levels by an enzyme immunoassay (a sandwich immunoassay method using two antibodies).
IgG assay: A preparation containing 40 µg/mL anti-human IgG antibody (F(ab')2, Cappel) in 50 mM sodium carbonate-sodium bicarbonate buffer (pH 9.6) was added to each well of a 96-well microtest plate (Nunc) at a rate of 100 µL/well. The plates were allowed to stand overnight at 4°C, and then rinsed 3 times with PBS containing 0.05% Tween 20. A 4-fold dilution of BlockAce (Snow Brand Milk Products Co., Ltd.) in PBS was added to the 96-well microtest plates (300 µL/well) which were then allowed to stand overnight at 4°C, followed by rinsing similarly. Next, a culture supernatant was serially diluted with a 4-fold dilution of BlockAce in PBS and a series of dilutions were added at a rate of 100 µL/well to the 96-well microtest plates which were then allowed to stand at 25°C for 1 hour, followed by rinsing similarly. Thereafter, a 2500-fold dilution of peroxidase-labeled mouse anti-human IgG antibody (Zymed) was added at a rate of 100 µL/well to the 96-well microtest plates which were then allowed to stand at 25°C for 1 hour, followed by rinsing similarly. A coloring kit for peroxidase (Sumitomo Bakelite) was added at a rate of 100 µL/well to each well which was subjected to an enzyme reaction for 15 to 30 minutes at room temperature, followed by addition of 1 N hydrochloric acid at a rate of 100 µL/well. The resultant colored product was measured for an optical density (OD) at 450 nm for a test wavelength and at 650 nm for a reference wavelength in a microplate reader. IgG levels are calculated using a calibration curve of a standard IgG.
IgM assay: The procedures for the IgG assay as aforementioned were repeated except that the anti-human IgG antibody (F(ab')2) was replaced to anti-human IgM antibody (F(ab')2, Cappel) and the peroxidase-labeled mouse anti-human IgG antibody also to peroxidase-labeled mouse anti-human IgM antibody (Zymed; 2,000-fold dilution). IgM levels are obtained in the same manner as for the IgG assay.

The subject of test [2] is mouse experimental atopic dermatitis models. In words: Auricle edema in experimental atopic dermatitis model (anti-DNP IgE sensitization, DNFB elicitation). The test is classed as in vivo, Balb/c mice. The note with it: for % Inhibition vLPR: auricle edema Day 7 post-elicitation.
Setting [3] is: read-out: IgG production of PBMC, percent inhibition.
Setting [4] is: read-out: IgM production of PBMC, percent inhibition.

As a reminder, the inhibition is the share of the control response that was lost under treatment. In the case of `CNC(=O)[C@H](Cc1ccc(NC(=N)N)cc1)NC(=O)[C@H](CC(C)C)C(CCCc1ccccc1)C(=O)NO` (single isomer, unassigned) [Compound No. 130, N-[4-(N-Hydroxyamino)-2(R)-isobutyl-3(R or S)-(3-phenyltrimethylene)succinyl)-L-4'-guanidophenylalanine-N-methylamide 1 acetate], the inhibition at 0.1 µM in test [1] (setting [3]) was 84.5%; in test [1] (setting [4]), 32.9%. Also, the figures for the inhibition at 1 µM in test [1] (setting [3]) and in test [1] (setting [4]) were 96.1% and 68.1%, respectively. The figures for the inhibition at 10 µM in test [1] (setting [3]) and in test [1] (setting [4]) were 96% and 63.4%, respectively. In test [2] (50 µg/ear/dose in ethanol painted twice a day, 1 hour pre-elicitation, 0.25, 3, 4, 5 and 6 days post-elicitation), the “inhibitory efficacy on IgE-mediated auricle edema (FIG. 7)” value was “endowed with an inhibitory activity on edemas in any of IPR, LPR, and vLPR”. In test [2] (60 mg/kg s.c. 24 and 2 hours prior to elicitation only, compared with prednisolone 10 mg/kg i.p., IPR 1 hour, LPR 1 day, vLPR 7 days), the “inhibitory efficacy on IgE-mediated auricle edema (FIG. 6)” value was “edema-inhibitory activity equivalent to that of prednisolone in IPR and slightly and markedly higher than that of prednisolone in LPR and vLPR, respectively”. The “% Inhibition IPR” value in test [2] (auricle edema 1 hour post-elicitation, test compounds 60 mg/kg s.c., prednisolone 10 mg/kg i.p., once a day, 24 & 2 hours prior to DNFB-elicitation, vs untreated group) amounted to 64.4%. Moreover, the “% Inhibition LPR” value in test [2] (auricle edema Day 1 post-elicitation, test compounds 60 mg/kg s.c., prednisolone 10 mg/kg i.p., once a day, 24 & 2 hours prior to DNFB-elicitation, vs untreated group) is reported as 51.3%. The “% Inhibition vLPR” value in test [2] (test compounds 60 mg/kg s.c., prednisolone 10 mg/kg i.p., daily from 3 to 6 days after DNFB-elicitation) is on record as 52.7%; in test [2] (test compounds 60 mg/kg s.c., prednisolone 10 mg/kg i.p., daily from 1 day prior to through 5 days after DNFB-elicitation) it was 79.0%.

Source of the values: patent publication EP1101492A1, “NOVEL REMEDIES FOR ALLERGIC DISEASES” (FUJI YAKUHIN KOGYO KABUSHIKI KAISHA, priority 1998, dated 2000).
